In PubChem BioAssay (NCI):
Values joined by “and” are separate entries in the source; they are usually repeats but may differ in a detail not shown here. Equal values may be shown once.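 These data come from cells grown in 96-well plates and exposed to compound for 48 hours at five concentrations. Abbreviation: GI50, concentration required for 50% inhibition of growth. TGI: total growth inhibition.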

Columns and labels:
Assay in all cases: DTP human tumour cell line panel, 48 h
HOP-62 NSCLC = tested on: HOP-62 NSCLC
A549 NSCLC = tested on: A549 NSCLC
SF-295 CNS = tested on: SF-295 CNS
HCT-116 colon = tested on: HCT-116 colon
HS 578T breast = tested on: HS 578T breast
CCRF-CEM leukemia = tested on: CCRF-CEM leukemia
BT-549 breast = tested on: BT-549 breast
SW-620 colon = tested on: SW-620 colon
PC-3 prostate = tested on: PC-3 prostate
NCI-H226 lung = tested on: NCI-H226 lung
SN12C renal = tested on: SN12C renal
MOLT-4 leukemia = tested on: MOLT-4 leukemia
T-47D breast = tested on: T-47D breast
NCI-H23 lung = tested on: NCI-H23 lung
HT29 colon = tested on: HT29 colon

Row | Structure (SMILES) | TGI (HOP-62 NSCLC) | TGI (A549 NSCLC) | TGI (SF-295 CNS) | TGI (HCT-116 colon) | TGI (HS 578T breast) | TGI (CCRF-CEM leukemia) | TGI (BT-549 breast) | TGI (SW-620 colon) | TGI (PC-3 prostate) | TGI (NCI-H226 lung) | TGI (SN12C renal) | TGI (MOLT-4 leukemia) | TGI (T-47D breast) | TGI (NCI-H23 lung) | TGI (HT29 colon) | GI50 (HS 578T breast) | GI50 (BT-549 breast)
1 | CC(=O)OC12c3ccccc3C(c3ccccc31)C1C(=O)N(c3ccccc3O)C(=O)C12 (configuration not stated) | > 100 µM | > 100 µM | > 100 µM | > 100 µM | > 100 µM | > 100 µM | > 100 µM | > 100 µM | > 100 µM | > 100 µM | > 100 µM | > 100 µM | > 100 µM | > 100 µM | > 100 µM | – | –
2 | Cc1ccc(OC2CC(n3cnc4c(=O)[nH]c(Br)nc43)OC2Oc2ccc(C)cc2)cc1 (configuration not stated) | 49.5 µM | 69.7 µM | 61.9 µM | > 100 µM | 66.1 µM | 53.7 µM | 67.5 µM | > 100 µM | 49.8 µM | > 100 µM | 56.5 µM | 50.5 µM | 62.1 µM | 70.3 µM | 83.4 µM | – | –
3 | CC(=O)OCC(OC(C)=O)C(OC(C)=O)C(/C=N\Nc1nc2ccccc2c(=O)[nH]1)OC(C)=O (configuration not stated) | > 100 µM | > 100 µM | > 100 µM | > 100 µM | > 100 µM | > 100 µM | > 100 µM | > 100 µM | > 100 µM | > 100 µM | > 100 µM | > 100 µM | > 100 µM | > 100 µM | > 100 µM | 40.6 µM and 88.4 µM | –
4 | CO[C@@H]1C[C@H]2[C@@H]3CC[C@H]([C@@H](C)COC(C)=O)[C@@]3(C)CC[C@@H]2[C@@]2(C)CC[C@H]3C[C@]312 | 31.5 µM | 37.3 µM | 28.3 µM | 22.2 µM | 39.5 µM | 40.7 µM | 27.2 µM | 27.3 µM | 29.6 µM | 34.9 µM | 32.1 µM | 32.3 µM | 31.1 µM | 25.4 µM | 19.9 µM | – | –
5 | CC(C)(Cl)C(Br)CCC(=CCBr)CBr (mixture of isomers) | 11.7 µM | 29.9 µM | 11 µM | 3.66 µM | 19.3 µM | 3.49 µM | 7.5 µM | 5.53 µM | 18 µM | 51.9 µM | 8.39 µM | 2.88 µM | 17.3 µM | 9.07 µM | 4.65 µM | – | –
6 | Cc1ccc([N+](=O)[O-])cc1S(=O)(=O)Nc1ccc(C(=O)/C=C/c2ccccc2)cc1 | 34.5 µM | > 100 µM | 44.1 µM | 29.3 µM | > 100 µM | 69.9 µM | 33.7 µM | 59.4 µM | 30.6 µM | 98.4 µM | 43.2 µM | 23 µM | 44.6 µM | 34.7 µM | 57.6 µM | – | –
7 | COc1ccccc1NC(=S)NNC(=O)c1cc(-c2ccccc2)nc2ccccc12 | 32 µM | 35 µM | 18 µM | 25.6 µM | 50.2 µM | 6.95 µM | 63.8 µM | 84.9 µM | 49.3 µM | 51.9 µM | 41.5 µM | 26.5 µM | 63 µM | 32.3 µM | 71.3 µM | – | –
8 | CN1CCC2(CC1)C(=O)N(NC(N)=O)C(=O)C2c1ccccc1 (configuration not stated) | > 100 µM | > 100 µM | > 100 µM | > 100 µM | > 100 µM | > 100 µM | > 100 µM | > 100 µM | > 100 µM | > 100 µM | > 100 µM | > 100 µM | > 100 µM | > 100 µM | > 100 µM | – | –
9 | COc1cc(S(=O)(=O)Nc2ccc(-c3csc(/N=C\c4ccccc4O)n3)cc2)ccc1Cl | > 100 µM | > 100 µM | > 100 µM | > 100 µM | > 100 µM | > 100 µM | > 100 µM | > 100 µM | > 100 µM | > 100 µM | > 100 µM | 70.3 µM | 61.2 µM | > 100 µM | > 100 µM | – | –
10 | CNC(=O)Nn1c(SC)nc2ccccc21 | > 100 µM | > 100 µM | > 100 µM | > 100 µM | > 100 µM | > 100 µM | > 100 µM | > 100 µM | > 100 µM | > 100 µM | > 100 µM | > 100 µM | > 100 µM | > 100 µM | > 100 µM | – | –
11 | Brc1ccc2[nH]cc([C@@H]3CN[C@@H](c4c[nH]c5ccc(Br)cc45)CN3)c2c1 | 23.1 µM | 19.4 µM | 14.7 µM | 9.2 µM | 29.6 µM | 5.41 µM | 30.8 µM | 15.6 µM | 14.7 µM | 31.3 µM | 17.8 µM | 4.51 µM | 29.2 µM | 25.3 µM | 15.5 µM | – | –
12 | NCCSC1(O)C(=O)c2ccccc2-c2ccccc21 (configuration not stated) | 3.22 µM | 2.91 µM | 2.28 µM | 1.04 µM | 6.2 µM | 6.82 µM | 2.9 µM | 3.16 µM | 2.56 µM | 2.99 µM | 2.76 µM | 1.21 µM | 2.11 µM | 3.75 µM | 3.8 µM | – | 1560 nM
13 | CCOC(=O)C(CC(C)C)NC(=O)C(N)Cc1ccc(N(CCCl)CCCl)cc1 (configuration not stated) | 22 µM | 45.1 µM | 21.9 µM | 17.9 µM | 44.5 µM | 13 µM | 46 µM | 35.7 µM | 32.2 µM | 29.5 µM | 19.7 µM | 1.68 µM | 15.1 µM | 7.09 µM | 11.6 µM | – | –
14 | CC(=O)OC12c3ccccc3C(c3ccccc31)C1C(=O)N(Nc3ccccc3)C(=O)C12 (configuration not stated) | > 100 µM | > 100 µM | > 100 µM | > 100 µM | > 100 µM | > 100 µM | > 100 µM | > 100 µM | > 100 µM | > 100 µM | > 100 µM | > 100 µM | > 100 µM | > 100 µM | > 100 µM | – | –
15 | C=CC(C)(C)c1c(OC)oc2ccc(OC)c(C)c2c1=O | > 100 µM | > 100 µM | > 100 µM | > 100 µM | > 100 µM | > 100 µM | > 100 µM | > 100 µM | > 100 µM | > 100 µM | > 100 µM | > 100 µM | > 100 µM | > 100 µM | > 100 µM | – | –
16 | c1ccc(C2C3=C(c4ccccc4CC3)N3c4cc5nc6ccccc6nc5cc4NC34CCCCC24)cc1 (configuration not stated) | > 10 µM | > 10 µM | > 10 µM | > 10 µM | > 10 µM | 5.9 µM | > 10 µM | > 10 µM | > 10 µM | > 10 µM | > 10 µM | > 8.19 µM | > 10 µM | > 10 µM | > 10 µM | – | –
17 | C/C(=N/NC(=S)Nc1ccccc1C)c1ccccn1 | 8.99 µM | 18.5 µM | 5.63 µM | 12.9 µM | 65.3 µM | 14.4 µM | 16 µM | 29.2 µM | 19.5 µM | 2.47 µM | 6.51 µM | 2.08 µM | 3.49 µM | 27.2 µM | 31.8 µM | – | –
18 | COc1cc(C2SC(N)=Nc3c2c(C)nn3C(=O)Cc2ccccc2)cc(OC)c1OC (configuration not stated) | > 100 µM | > 100 µM | > 100 µM | > 100 µM | > 100 µM | > 100 µM | > 100 µM | > 100 µM | > 100 µM | > 100 µM | > 100 µM | > 100 µM | > 100 µM | > 100 µM | > 100 µM | – | –
19 | N[C@@H]1c2c(Br)sc(Br)c2C(=O)[C@H]1Br | > 93.6 µM | > 100 µM | > 100 µM | 39.9 µM | > 100 µM | > 22.6 µM | 43.1 µM | 44.4 µM | > 84.8 µM | > 58.4 µM | 58.9 µM | > 46.1 µM | 84 µM | 57.4 µM | 53.3 µM | – | –
20 | CC1NC(=O)c2c(-c3ccccc3)nn(-c3ccccc3)c2NC1=O (configuration not stated) | > 100 µM | > 100 µM | > 100 µM | > 100 µM | > 100 µM | > 100 µM | > 100 µM | > 100 µM | > 100 µM | > 100 µM | > 100 µM | > 100 µM | > 100 µM | > 100 µM | > 100 µM | – | –
21 | COc1ccc(/C=C2\N=C(N3CCOCC3)NC2=O)cc1 | > 100 µM | > 100 µM | > 100 µM | > 100 µM | > 100 µM | > 100 µM | > 100 µM | > 100 µM | > 100 µM | > 100 µM | > 100 µM | > 100 µM | > 100 µM | > 100 µM | > 100 µM | – | –
